According to patent US20120101032A1, “NOVEL MACROCYCLIC INHIBITORS OF HEPATITIS C VIRUS REPLICATION” (priority 2010, published 2012):

Legend:
[1] = test system: hepatitis C replicon; experiment: hepatitis C replicon EC50 assay; format: cell-based; settings: Hepatitis C virus; hepatitis C replicon; read-out: EC50
Source text: NS3-NS4 inhibition activity can be determined using known assay methods.

[2] = biological target: NS3/NS4 complexes (Hepatitis C virus genotype 1a, UniProt P27958); experiment: biochemical; settings: NS3-NS4 activity; 23° C., pH 7.5, 25 μM NS4A peptide; read-out: IC50
Chain of NS3/NS4 complexes (P27958 1027-1657, one chain of several): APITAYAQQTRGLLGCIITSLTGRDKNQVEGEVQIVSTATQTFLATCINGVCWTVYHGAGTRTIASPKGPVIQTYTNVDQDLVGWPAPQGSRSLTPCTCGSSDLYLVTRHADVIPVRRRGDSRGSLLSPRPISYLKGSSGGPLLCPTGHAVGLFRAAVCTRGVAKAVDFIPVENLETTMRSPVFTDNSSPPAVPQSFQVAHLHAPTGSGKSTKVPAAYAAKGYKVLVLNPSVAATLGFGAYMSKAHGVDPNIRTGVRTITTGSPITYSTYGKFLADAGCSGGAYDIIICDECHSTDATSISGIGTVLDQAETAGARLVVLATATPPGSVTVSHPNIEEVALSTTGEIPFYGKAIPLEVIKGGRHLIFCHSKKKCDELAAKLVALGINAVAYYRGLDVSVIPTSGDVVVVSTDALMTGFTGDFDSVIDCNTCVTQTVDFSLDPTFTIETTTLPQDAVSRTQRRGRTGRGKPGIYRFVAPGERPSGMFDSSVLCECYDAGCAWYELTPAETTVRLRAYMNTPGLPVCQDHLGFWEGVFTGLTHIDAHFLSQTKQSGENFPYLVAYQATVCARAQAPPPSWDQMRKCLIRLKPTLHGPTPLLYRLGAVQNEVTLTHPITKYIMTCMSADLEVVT
Source text: NS3-NS4 inhibition activity can be determined using known assay methods. For example, NS3/NS4 complexes may be formed and inhibitory concentrations of test compounds determined as described in U.S. Patent Application Publication Number 2007/0054842 paragraph numbers 1497-1509, which is incorporated herein by reference in its entirety. Similarly, hepatitis C replicon EC50 may be determined using known assay methods such as described in U.S. Patent Application Publication Number 2007/0054842 paragraph numbers 1510-1515, which is incorporated herein by reference in its entirety. Assays may be conducted at ambient temperature (23° C.) in assay buffer containing 50 mM Tris-HCl, pH 7.5, 15% glycerol, 0.6 mM Lauryldimethylamine Oxide (LDAO), 25 μM NS4A peptide, and 10 mM Dithiothreitol (DTT).

CC(C)n1c(O[C@@H]2C[C@H]3C(=O)N[C@]4(C(=O)NS(=O)(=O)C5(C)CC5)C[C@H]4/C=C\CCCCC[C@H](NC(=O)OC(C)(C)C)C(=O)N3C2)nc2c(-c3nc(-c4cccc(Cl)c4)cs3)cccc21 [Compound 101]
EC50 [1]: 10 to 100 nM
IC50 [2]: < 10 nM

CC(C)n1c(O[C@@H]2C[C@H]3C(=O)N[C@]4(C(=O)NS(=O)(=O)C5(C)CC5)C[C@H]4/C=C\CCCCC[C@H](NC(=O)OC(C)(C)C)C(=O)N3C2)nc2c(-c3nc(Cc4ccc(OC(F)(F)F)cc4)cs3)cccc21 [Compound 121]
EC50 [1]: 10 to 100 nM
IC50 [2]: < 10 nM

CC(C)n1c(O[C@@H]2C[C@H]3C(=O)N[C@]4(C(=O)NS(=O)(=O)C5CC5)C[C@H]4/C=C\CCCCC[C@H](NC(=O)OC(C)(C)C)C(=O)N3C2)nc2c(-c3nc(C4CCNCC4)cs3)cccc21 [Compound 190]
EC50 [1]: < 10 nM
IC50 [2]: < 10 nM

COc1cccc(-c2csc(-c3cccc4c3nc(O[C@@H]3C[C@H]5C(=O)N[C@]6(C(=O)NS(=O)(=O)N(C)C)C[C@H]6/C=C\CCCCC[C@H](NC(=O)OC(C)(C)C)C(=O)N5C3)n4C(C)C)n2)c1 [Compound 132]
EC50 [1]: 10 to 100 nM
IC50 [2]: < 10 nM

CC(C)n1c(O[C@@H]2C[C@H]3C(=O)N[C@]4(C(=O)NS(=O)(=O)C5(C)CC5)C[C@H]4/C=C\CCCCC[C@H](NC(=O)OC(C)(C)C)C(=O)N3C2)nc2c(-c3nc(C4CCOCC4)cs3)cccc21 [Compound 181]
EC50 [1]: < 10 nM
IC50 [2]: < 10 nM

CC(C)n1c(O[C@@H]2C[C@H]3C(=O)N[C@]4(C(=O)NS(=O)(=O)C5(C)CC5)C[C@H]4/C=C\CCCCC[C@H](NC(=O)OC(C)(C)C)C(=O)N3C2)nc2c(-c3csc(N4CCN(C)CC4)n3)cccc21 [Compound 127]
EC50 [1]: < 10 nM
IC50 [2]: < 10 nM

COc1cccc(Cc2csc(-c3cccc4c3nc(O[C@@H]3C[C@H]5C(=O)N[C@]6(C(=O)NS(=O)(=O)N(C)C)C[C@H]6/C=C\CCCCC[C@H](NC(=O)OC(C)(C)C)C(=O)N5C3)n4C(C)C)n2)c1 [Compound 152]
EC50 [1]: < 10 nM
IC50 [2]: < 10 nM

CC(C)n1c(O[C@@H]2C[C@H]3C(=O)N[C@]4(C(=O)NS(=O)(=O)C5(C)CC5)C[C@H]4/C=C\CCCCC[C@H](NC(=O)OC(C)(C)C)C(=O)N3C2)nc2c(-c3nc(Cc4cccc(OC(F)(F)F)c4)cs3)cccc21 [Compound 120]
EC50 [1]: 10 to 100 nM
IC50 [2]: < 10 nM

CC(C)n1c(O[C@@H]2C[C@H]3C(=O)N[C@]4(C(=O)NS(=O)(=O)C5(C)CC5)C[C@H]4/C=C\CCCCC[C@H](NC(=O)OC(C)(C)C)C(=O)N3C2)nc2c(-c3nc(Cc4ccc(-c5ccccc5)cc4)cs3)cccc21 [Compound 118]
EC50 [1]: < 10 nM
IC50 [2]: < 10 nM

COc1ccccc1-c1csc(-c2cccc3c2nc(O[C@@H]2C[C@H]4C(=O)N[C@]5(C(=O)NS(=O)(=O)C6(C)CC6)C[C@H]5/C=C\CCCCC[C@H](N)C(=O)N4C2)n3C(C)C)n1 [Compound 177]
EC50 [1]: > 100 nM
IC50 [2]: < 10 nM

COc1cccc(-c2csc(-c3cccc4c3nc(O[C@@H]3C[C@H]5C(=O)N[C@]6(C(=O)NS(=O)(=O)C7(C)CC7)C[C@H]6/C=C\CCCCC[C@H](NC(=O)OC(C)(C)C)C(=O)N5C3)n4C(C)C)n2)c1 [Compound 103]
EC50 [1]: < 10 nM
IC50 [2]: < 10 nM

COc1ccc2c(O[C@@H]3C[C@H]4C(=O)N[C@]5(C(=O)NS(=O)(=O)C6(C)CC6)C[C@H]5/C=C\CCCCC[C@H](NC(=O)OC(C)(C)C)C(=O)N4C3)cc(C(C)C)nc2c1C [Compound 501]
EC50 [1]: < 10 nM
IC50 [2]: < 10 nM

CC(C)c1csc(-c2cc(O[C@@H]3C[C@H]4C(=O)N[C@]5(C(=O)NS(=O)(=O)C6(C)CC6)C[C@H]5/C=C\CCCCC[C@H](NC(=O)OC(C)(C)C)C(=O)N4C3)c3c(n2)CCCC3)n1 [Compound 406]
EC50 [1]: < 10 nM
IC50 [2]: < 10 nM

CC(C)n1c(O[C@@H]2C[C@H]3C(=O)N[C@]4(C(=O)NS(=O)(=O)C5(C)CC5)C[C@H]4/C=C\CCCCC[C@H](NC(=O)OC(C)(C)C)C(=O)N3C2)nc2c(-c3nc(-c4ccc(F)c(C(F)(F)F)c4)cs3)cccc21 [Compound 109]
EC50 [1]: 10 to 100 nM
IC50 [2]: < 10 nM

CC(C)c1csc(-c2cc(O[C@@H]3C[C@H]4C(=O)N[C@]5(C(=O)NS(=O)(=O)C6(C)CC6)C[C@H]5/C=C\CCCCC[C@H](NC(=O)OC(C)(C)C)C(=O)N4C3)ccn2)n1 [Compound 601]
EC50 [1]: < 10 nM
IC50 [2]: < 10 nM

CC(C)n1c(O[C@@H]2C[C@H]3C(=O)N[C@]4(C(=O)NS(=O)(=O)N(C)C)C[C@H]4/C=C\CCCCC[C@H](NC(=O)OC(C)(C)C)C(=O)N3C2)nc2c(-c3nc(Cc4cccc(C(F)(F)F)c4)cs3)cccc21 [Compound 149]
EC50 [1]: 10 to 100 nM
IC50 [2]: < 10 nM

CC(C)n1c(O[C@@H]2C[C@H]3C(=O)N[C@]4(C(=O)NS(=O)(=O)C5CC5)C[C@H]4/C=C\CCCCC[C@H](NC(=O)OC(C)(C)C)C(=O)N3C2)nc2c(-c3nc(C4CCN(C)CC4)cs3)cccc21 [Compound 184]
EC50 [1]: < 10 nM
IC50 [2]: < 10 nM

CC(C)n1c(O[C@@H]2C[C@H]3C(=O)N[C@]4(C(=O)NS(=O)(=O)C5(C)CC5)C[C@H]4/C=C\CCCCC[C@H](NC(=O)OC(C)(C)C)C(=O)N3C2)nc2c(-c3nc(-c4ccc(Cl)c(Cl)c4)cs3)cccc21 [Compound 107]
EC50 [1]: 10 to 100 nM
IC50 [2]: < 10 nM

CC(C)n1c(O[C@@H]2C[C@H]3C(=O)N[C@]4(C(=O)NS(=O)(=O)C5(C)CC5)C[C@H]4/C=C\CCCCC[C@H](N)C(=O)N3C2)nc2c(-c3nc(C4CCCCC4)cs3)cccc21 [Compound 178]
EC50 [1]: > 100 nM
IC50 [2]: < 10 nM

CC(C)n1c(O[C@@H]2C[C@H]3C(=O)N[C@]4(C(=O)NS(=O)(=O)N(C)C)C[C@H]4/C=C\CCCCC[C@H](NC(=O)OC(C)(C)C)C(=O)N3C2)nc2c(-c3cncc(N4CCCC4)n3)cccc21 [Compound 162]
EC50 [1]: < 10 nM
IC50 [2]: < 10 nM

COc1ccc(Cc2csc(-c3cccc4c3nc(O[C@@H]3C[C@H]5C(=O)N[C@]6(C(=O)NS(=O)(=O)N(C)C)C[C@H]6/C=C\CCCCC[C@H](NC(=O)OC(C)(C)C)C(=O)N5C3)n4C(C)C)n2)cc1 [Compound 157]
EC50 [1]: < 10 nM
IC50 [2]: < 10 nM

CC(C)n1c(O[C@@H]2C[C@H]3C(=O)N[C@]4(C(=O)NS(=O)(=O)N(C)C)C[C@H]4/C=C\CCCCC[C@H](NC(=O)OC(C)(C)C)C(=O)N3C2)nc2c(-c3nc(Cc4cccc(Br)c4)cs3)cccc21 [Compound 153]
EC50 [1]: 10 to 100 nM
IC50 [2]: < 10 nM

CC(C)n1c(O[C@@H]2C[C@H]3C(=O)N[C@]4(C(=O)NS(=O)(=O)C5(C)CC5)C[C@H]4/C=C\CCCCC[C@H](NC(=O)OC(C)(C)C)C(=O)N3C2)nc2c(-c3csc(N4CCCC4)n3)cccc21 [Compound 125]
EC50 [1]: < 10 nM
IC50 [2]: < 10 nM

CC(C)n1c(O[C@@H]2C[C@H]3C(=O)N[C@]4(C(=O)NS(=O)(=O)C5(C)CC5)C[C@H]4/C=C\CCCCC[C@H](NC(=O)OC(C)(C)C)C(=O)N3C2)nc2c(-c3nc(C4CCN(C)CC4)cs3)cccc21 [Compound 183]
EC50 [1]: < 10 nM
IC50 [2]: < 10 nM

CC(C)(C)OC(=O)N[C@H]1CCCCC/C=C\[C@@H]2C[C@@]2(C(=O)NS(=O)(=O)C2(C)CC2)NC(=O)[C@@H]2C[C@@H](Oc3ncnc4c3CCCC4)CN2C1=O [Compound 301]
EC50 [1]: 10 to 100 nM
IC50 [2]: < 10 nM

CC(C)n1c(O[C@@H]2C[C@H]3C(=O)N[C@]4(C(=O)NS(=O)(=O)N(C)C)C[C@H]4/C=C\CCCCC[C@H](NC(=O)OC(C)(C)C)C(=O)N3C2)nc2c(-c3nc(-c4ccc(OC(F)(F)F)cc4)cs3)cccc21 [Compound 136]
EC50 [1]: > 100 nM
IC50 [2]: < 10 nM

CC(C)n1c(O[C@@H]2C[C@H]3C(=O)N[C@]4(C(=O)NS(=O)(=O)N(C)C)C[C@H]4/C=C\CCCCC[C@H](NC(=O)OC(C)(C)C)C(=O)N3C2)nc2c(-c3nc(Cc4ccccc4F)cs3)cccc21 [Compound 156]
EC50 [1]: < 10 nM
IC50 [2]: < 10 nM

CC(C)n1c(O[C@@H]2C[C@H]3C(=O)N[C@]4(C(=O)NS(=O)(=O)N(C)C)C[C@H]4/C=C\CCCCC[C@H](NC(=O)OC(C)(C)C)C(=O)N3C2)nc2c(-c3nc(-c4ccc(F)cc4)cs3)cccc21 [Compound 134]
EC50 [1]: 10 to 100 nM
IC50 [2]: < 10 nM

COc1ccccc1Cc1csc(-c2cccc3c2nc(O[C@@H]2C[C@H]4C(=O)N[C@]5(C(=O)NS(=O)(=O)N(C)C)C[C@H]5/C=C\CCCCC[C@H](NC(=O)OC(C)(C)C)C(=O)N4C2)n3C(C)C)n1 [Compound 147]
EC50 [1]: < 10 nM
IC50 [2]: < 10 nM

CC(C)n1c(O[C@@H]2C[C@H]3C(=O)N[C@]4(C(=O)NS(=O)(=O)C5(C)CC5)C[C@H]4/C=C\CCCCC[C@H](NC(=O)OC(C)(C)C)C(=O)N3C2)nc2c(-c3cscn3)cccc21 [Compound 129]
EC50 [1]: < 10 nM
IC50 [2]: < 10 nM

CC(C)n1c(O[C@@H]2C[C@H]3C(=O)N[C@]4(C(=O)NS(=O)(=O)N(C)C)C[C@H]4/C=C\CCCCC[C@H](NC(=O)OC(C)(C)C)C(=O)N3C2)nc2c(-c3nc(-c4ccc(F)cc4F)cs3)cccc21 [Compound 139]
EC50 [1]: 10 to 100 nM
IC50 [2]: < 10 nM
